The supplement of paper PMC12513837
± gives the standard deviation of the averaged measurements.

Compound: CC(=O)N1CCc2c(c(N3CCCc4cc(-c5cnn(C)c5)c(C(F)F)cc43)nn2C2CCC(CN3CCN(c4ccc5c(c4)C(=O)N(C4CCC(=O)NC4=O)C5=O)CC3)CC2)C1 [CBPD-409]
Experiment: AUC of viability dose-response curve (relative to vehicle, 8 doses up to 10 µM) (fraction); higher = less sensitive (more viable); extreme values may be limits of the assay
Procedure: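 PRISM multiplexed pooled barcoded cell line viability screen at the Broad Institute, 887 cancer cell lines treated with CBPD-409 (p300/CBP PROTAC degrader) at 8 concentrations in threefold dilution, top dose 10 µM. The read-out is the area under the dose-response curve of relative viability versus vehicle (n=3). AUC < 0.3 is called strongly sensitive and AUC > 0.8 resistant.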

Test System | AUC of viability dose-response curve
RERFLCAD1_LUNG | 1
PATU8988T_PANCREAS | 0.499
HOS_BONE | 0.931 ± 0.027
G415_BILIARY_TRACT | 0.902
GB2_BILIARY_TRACT | 0.826
COLO320_LARGE_INTESTINE | 1
GB1_CENTRAL_NERVOUS_SYSTEM | 0.595
OCILY132_HAEMATOPOIETIC_AND_LYMPHOID_TISSUE | 1
RPMI8402_HAEMATOPOIETIC_AND_LYMPHOID_TISSUE | 0.266
TGBC1TKB_BILIARY_TRACT | 1
HSC5_SKIN | 0.644
C8166_HAEMATOPOIETIC_AND_LYMPHOID_TISSUE | 0.546
SW579_THYROID | 0.197
DL_SOFT_TISSUE | 0.471
PC14_LUNG | 0.877
NOMO1_HAEMATOPOIETIC_AND_LYMPHOID_TISSUE | 0.279
K029AX_SKIN | 0.793
YD10B_UPPER_AERODIGESTIVE_TRACT | 1
SKMES1_LUNG | 0.848
PANC0813_PANCREAS | 0.953
NCIH446_LUNG | 0.445
SNU245_BILIARY_TRACT | 0.719

Test System | AUC of viability dose-response curve
OSRC2_KIDNEY | 1
CAMA1_BREAST | 0.746
NCIH1048_LUNG | 0.878
RKO_LARGE_INTESTINE | 0.854
LMSU_STOMACH | 0.672
KARPAS299_HAEMATOPOIETIC_AND_LYMPHOID_TISSUE | 1
SNU1076_UPPER_AERODIGESTIVE_TRACT | 0.845
HCC1395_BREAST | 0.783
CHL1_SKIN | 0.148
LUDLU1_LUNG | 1
TE5_OESOPHAGUS | 0.998
NCIH838_LUNG | 0.893
MC116_HAEMATOPOIETIC_AND_LYMPHOID_TISSUE | 0.804
PANC1_PANCREAS | 0.999
SW1116_LARGE_INTESTINE | 1
PEDS005TSUSP_KIDNEY | 0.309
NCIH1373_LUNG | 1
MOLM14_HAEMATOPOIETIC_AND_LYMPHOID_TISSUE | 0.212
KYSE520_OESOPHAGUS | 0.797
SW1710_URINARY_TRACT | 0.8
PC3_PROSTATE | 0.763
CHLA06ATRT_SOFT_TISSUE | 1

Test System | AUC of viability dose-response curve
HT115_LARGE_INTESTINE | 1
RT4_URINARY_TRACT | 0.887
EFM19_BREAST | 0.575
TOV21G_OVARY | 0.644
K562_HAEMATOPOIETIC_AND_LYMPHOID_TISSUE | 1
KMS27_HAEMATOPOIETIC_AND_LYMPHOID_TISSUE | 0.801
NCIH1341_LUNG | 1
KCL22_HAEMATOPOIETIC_AND_LYMPHOID_TISSUE | 0.552
HAC2_OVARY | 1
BICR22_UPPER_AERODIGESTIVE_TRACT | 0.901
NCIH1703_LUNG | 0.78
KMBC2_URINARY_TRACT | 0.841
SW1463_LARGE_INTESTINE | 1
ISTMES1_PLEURA | 0.481
TEN_ENDOMETRIUM | 0.726
KMH2_HAEMATOPOIETIC_AND_LYMPHOID_TISSUE | 1
BC3C_URINARY_TRACT | 1
KYSE270_OESOPHAGUS | 0.722
RL_HAEMATOPOIETIC_AND_LYMPHOID_TISSUE | 0.651
SW948_LARGE_INTESTINE | 0.577
RD_SOFT_TISSUE | 0.657 ± 0.29
VMRCRCW_KIDNEY | 0.631

Test System | AUC of viability dose-response curve
EFM192A_BREAST | 0.645
MOLT3_HAEMATOPOIETIC_AND_LYMPHOID_TISSUE | 1
SW156_KIDNEY | 0.884
JURLMK1_HAEMATOPOIETIC_AND_LYMPHOID_TISSUE | 0.361
HT1376_URINARY_TRACT | 1
TE11_OESOPHAGUS | 0.986
RVH421_SKIN | 0.929
ECGI10_OESOPHAGUS | 0.903
OACM51_OESOPHAGUS | 1
IPC298_SKIN | 0.808
U2OS_BONE | 1
P12ICHIKAWA_HAEMATOPOIETIC_AND_LYMPHOID_TISSUE | 0.739
PLCPRF5_LIVER | 1
VMCUB1_URINARY_TRACT | 0.443
786O_KIDNEY | 0.84
SBC5_LUNG | 0.687
SNU466_CENTRAL_NERVOUS_SYSTEM | 0.909
COV362_OVARY | 0.887
NALM6_HAEMATOPOIETIC_AND_LYMPHOID_TISSUE | 0.331
PANC0327_PANCREAS | 1
CMLT1_HAEMATOPOIETIC_AND_LYMPHOID_TISSUE | 0.666
RI1_HAEMATOPOIETIC_AND_LYMPHOID_TISSUE | 0.424
